Our source for the responders and ED50 values is patent publication US9315451B2, “Tetracycline compounds” (priority 2009, dated 2016).

The test system of this test is S. aureus Smith (ATCC 13709). Put plainly: Mouse systemic infection (septicemia) model, S. aureus Smith. The class given is in vivo. The note with it: Staphylococcus aureus, CD-1 female mice; for responders at 3 mg/kg: ATCC13709, iv, IV 3 mg/kg one hour post infection, read-out: SA Smith septicemia survival IV (3 mg/kg); for responders at 3 mg/kg / responders at 30 mg/kg: 48 h, survival at 48 hours; for responders at 30 mg/kg: ATCC13709, po, PO 30 mg/kg one hour post infection, read-out: SA Smith septicemia survival PO (30 mg/kg); for ED50: ATCC13709, dose that prevents 50% of the mice from death, 48 hours. The procedure: Mouse Systemic Infection Protocol-S. aureus Smith Septicemia
Compounds were screened for antibacterial activity in vivo in a mouse systemic infection (septicemia) model. In the model, CD-1 female mice (18-22 grams) were injected IP with a S. aureus Smith (ATCC 13709) inoculum that results in 0% survival within 24 to 48 hours. The bacterial dose required to achieve this effect was previously established through virulence studies. At one hour post infection, mice received either […] IV or […] PO. Typically, six mice were treated per dose group. Animal survival was assessed and recorded for 48 hours. Percent survival at 48 hours was recorded and PD50 (mg/kg) was determined for each compound tested.

Setting [1] is: PO, read-out: SA Smith septicemia PD50 PO.

Like-named read-outs stand apart in the source and are kept apart here.

Turning to `CCN(Cc1cc(O)c2c(c1F)C[C@H]1C[C@H]3[C@H](N(C)C)C(O)=C(C(N)=O)C(=O)[C@@]3(O)C(O)=C1C2=O)C1(C)CC1` [Compound S1-14-36], the responders at 3 mg/kg was found to be 33% and the responders at 30 mg/kg came to 0%.

Regarding `CN(C)c1c(CNC2C3CC4CC(C3)CC2C4)cc(O)c2c1C[C@H]1C[C@H]3[C@H](N(C)C)C(O)=C(C(N)=O)C(=O)[C@@]3(O)C(O)=C1C2=O` (some centres unmarked) [Compound S16-10-18], the responders at 3 mg/kg turned out to be 17% and the responders at 30 mg/kg came out at 0%.

For the molecule `CN(C)[C@@H]1C(O)=C(C(N)=O)C(=O)[C@@]2(O)C(O)=C3C(=O)c4c(O)cc(CNC(C)(C)CC(C)(C)C)c(F)c4C[C@H]3C[C@@H]12` [Compound S2-4-7], the responders at 3 mg/kg came to 67% and the responders at 30 mg/kg stood at 17%.

On to `C[C@@H]1CCC[C@H](C)N1Cc1cc(O)c2c(c1F)C[C@H]1C[C@H]3[C@H](N(C)C)C(O)=C(C(N)=O)C(=O)[C@@]3(O)C(O)=C1C2=O` [Compound S2-4-66], for which the responders at 3 mg/kg worked out at 100% and the responders at 30 mg/kg was determined as 100%. The ED50 under setting [1] was 8.5 mg/kg.

`CN(C)C(=O)C(C)(C)N(C)Cc1cc(O)c2c(c1Cl)C[C@H]1C[C@H]3[C@H](N(C)C)C(O)=C(C(N)=O)C(=O)[C@@]3(O)C(O)=C1C2=O` [Compound S15-13-227]: the responders at 3 mg/kg was found to be 17% and the responders at 30 mg/kg was 0%.

For `CCN(Cc1cc(O)c2c(c1F)C[C@H]1C[C@H]3[C@H](N(C)C)C(O)=C(C(N)=O)C(=O)[C@@]3(O)C(O)=C1C2=O)CC(C)C` [Compound S2-4-50], the ED50 reads like this: (IV, read-out: SA Smith septicemia PD50 IV) 1 mg/kg; under setting [1], 10.1 mg/kg.

As for `C[C@@H]1CC[C@H](C)N1Cc1cc(O)c2c(c1Cl)C[C@H]1C[C@H]3[C@H](N(C)C)C(O)=C(C(N)=O)C(=O)[C@@]3(O)C(O)=C1C2=O` [Compound S15-13-203], the responders at 3 mg/kg was found to be 100% and the responders at 30 mg/kg is 100%.

`CN(C)[C@@H]1C(O)=C(C(N)=O)C(=O)[C@@]2(O)C(O)=C3C(=O)c4c(O)cc(CN(C)C(C)(C)CC(C)(C)C)c(F)c4C[C@H]3C[C@@H]12` [Compound S2-4-30]: the responders at 3 mg/kg is 33%. Moreover, the ED50 under setting [1] is > 60 mg/kg.

As for `CN(C)[C@@H]1C(O)=C(C(N)=O)C(=O)[C@@]2(O)C(O)=C3C(=O)c4c(O)cc(CNC5Cc6ccccc6C5)c(F)c4C[C@H]3C[C@@H]12` [Compound S1-14-90], the responders at 3 mg/kg came out at 33% and the responders at 30 mg/kg was found to be 0%.

For the molecule `CN(C)[C@@H]1C(O)=C(C(N)=O)C(=O)[C@@]2(O)C(O)=C3C(=O)c4c(O)cc(CN5CCCCCC5)c(C(F)(F)F)c4C[C@H]3C[C@@H]12` [Compound S25-11-56], the responders at 3 mg/kg worked out at 67% and the responders at 30 mg/kg turned out to be 33%.

Take `CN(C)[C@@H]1C(O)=C(C(N)=O)C(=O)[C@@]2(O)C(O)=C3C(=O)c4c(O)cc(CNCC(C)(C)C)c(Cl)c4C[C@H]3C[C@@H]12` [Compound S15-13-5]: the responders at 3 mg/kg turned out to be 50% and the responders at 30 mg/kg worked out at 17%.

Take `CN(C)[C@@H]1C(O)=C(C(N)=O)C(=O)[C@@]2(O)C(O)=C3C(=O)c4c(O)cc(CNCc5ccccc5)c(F)c4C[C@H]3C[C@@H]12` [Compound S1-14-105]: the responders at 3 mg/kg amounted to 67% and the responders at 30 mg/kg worked out at 0%.

As to `CN(C)[C@@H]1C(O)=C(C(N)=O)C(=O)[C@@]2(O)C(O)=C3C(=O)c4c(O)cc(CN5CC[C@H](F)C5)c(Cl)c4C[C@H]3C[C@@H]12` [Compound S15-13-226], the responders at 3 mg/kg came out at 100% and the responders at 30 mg/kg worked out at 83%.

On to `CC(C)N(Cc1cc(O)c2c(c1Cl)C[C@H]1C[C@H]3[C@H](N(C)C)C(O)=C(C(N)=O)C(=O)[C@@]3(O)C(O)=C1C2=O)CC1CC1` [Compound S15-13-215], for which the responders at 3 mg/kg turned out to be 50% and the responders at 30 mg/kg amounted to 50%.

With `CN(C)[C@@H]1C(O)=C(C(N)=O)C(=O)[C@@]2(O)C(O)=C3C(=O)c4c(O)cc(CNCC56CC7CC(CC(C7)C5)C6)c(F)c4C[C@H]3C[C@@H]12` [Compound S1-14-25], the responders at 3 mg/kg is 33% and the responders at 30 mg/kg stood at 17%.

Consider `C[C@@H]1CCC[C@H](C)N1Cc1cc(O)c2c(c1Cl)C[C@H]1C[C@H]3[C@H](N(C)C)C(O)=C(C(N)=O)C(=O)[C@@]3(O)C(O)=C1C2=O` [Compound S15-13-221], for which the responders at 3 mg/kg worked out at 33% and the responders at 30 mg/kg was 50%.

On to `CN(C)[C@@H]1C(O)=C(C(N)=O)C(=O)[C@@]2(O)C(O)=C3C(=O)c4c(O)cc(CN5CC6CCCCC6C5)c(Cl)c4C[C@H]3C[C@@H]12` (some centres unmarked) [Compound S15-13-117], for which the responders at 3 mg/kg is 33% and the responders at 30 mg/kg was found to be 20%.

Regarding `CN(C)[C@@H]1C(O)=C(C(N)=O)C(=O)[C@@]2(O)C(O)=C3C(=O)c4c(O)cc(CN5CCCCC56CC6)c(F)c4C[C@H]3C[C@@H]12` [Compound S2-4-11], the responders at 3 mg/kg worked out at 0% and the responders at 30 mg/kg was 0%.

Regarding `CC(C)[C@@H](C)N(C)Cc1cc(O)c2c(c1F)C[C@H]1C[C@H]3[C@H](N(C)C)C(O)=C(C(N)=O)C(=O)[C@@]3(O)C(O)=C1C2=O` [Compound S2-4-57], the responders at 3 mg/kg was determined as 50% and the responders at 30 mg/kg is 33%.

Turning to `CN(C)[C@@H]1C(O)=C(C(N)=O)C(=O)[C@@]2(O)C(O)=C3C(=O)c4c(O)cc(CN5CC6CCCC6C5)c(Cl)c4C[C@H]3C[C@@H]12` (some centres unmarked) [Compound S15-13-184], the responders at 3 mg/kg came out at 17% and the responders at 30 mg/kg was 0%.

For the molecule `CN(Cc1cc(O)c2c(c1F)C[C@H]1C[C@H]3[C@H](N(C)C)C(O)=C(C(N)=O)C(=O)[C@@]3(O)C(O)=C1C2=O)CC(C)(C)C` [Compound S2-4-21], the responders at 3 mg/kg was determined as 16% and the responders at 30 mg/kg was determined as 0%.

As for `CC(C)[C@@H](C)NCc1cc(O)c2c(c1C(F)(F)F)C[C@H]1C[C@H]3[C@H](N(C)C)C(O)=C(C(N)=O)C(=O)[C@@]3(O)C(O)=C1C2=O` [Compound S25-11-171], the responders at 3 mg/kg is 83% and the responders at 30 mg/kg was found to be 17%.

With `CN(C)[C@@H]1C(O)=C(C(N)=O)C(=O)[C@@]2(O)C(O)=C3C(=O)c4c(O)cc(NC(=O)CN5CCCC5)cc4C[C@H]3C[C@@H]12` [Compound S21-12-1], the responders at 3 mg/kg turned out to be 100% and the responders at 30 mg/kg was determined as 33%.
